# Molecular target: human 5-HT2C-VSV receptors (Homo sapiens, UniProt P28335, I156V/I160V/N158S)
# Type: binding
# Conditions: not given
# human 5-HT2C-VSV receptors, sequence (P28335 33-458 I156V/N158S/I160V limits assumed): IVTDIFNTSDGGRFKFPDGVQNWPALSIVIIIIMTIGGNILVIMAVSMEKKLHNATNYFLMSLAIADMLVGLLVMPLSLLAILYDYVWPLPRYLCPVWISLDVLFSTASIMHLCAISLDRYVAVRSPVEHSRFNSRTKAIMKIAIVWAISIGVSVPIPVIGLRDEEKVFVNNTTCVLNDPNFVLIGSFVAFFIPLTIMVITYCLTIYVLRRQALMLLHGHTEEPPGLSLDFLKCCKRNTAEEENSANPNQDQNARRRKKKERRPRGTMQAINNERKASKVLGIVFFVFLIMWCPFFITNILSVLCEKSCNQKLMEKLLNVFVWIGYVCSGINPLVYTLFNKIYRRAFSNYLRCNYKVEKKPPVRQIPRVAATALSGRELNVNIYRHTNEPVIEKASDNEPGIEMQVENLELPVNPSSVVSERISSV
row,SMILES,affinity to the 5HT2C receptor
1,"COc1ccc(Sc2ccc(F)cc2C2CCNCC2)c(F)c1 [2a3, 4-[2-(2-Fluoro-4-methoxy-phenylsulfanyl)-5-fluoro-phenyl]-piperidine]",good affinity
2,"Fc1cc(Cl)ccc1Sc1cccc(F)c1C1CCNCC1 [3d15, 4-[2-(4-Chloro-2-fluoro-phenylsulfanyl)-6-fluoro-phenyl]-piperidine]",good affinity
3,"Cc1ccc(Sc2ccc(F)cc2C2CCNCC2)c(F)c1 [2q, 4-[2-(2-Fluoro-4-methyl-phenylsulfanyl)-5-fluoro-phenyl]-piperidine]",good affinity
4,"Fc1cccc(Sc2cccc(Cl)c2F)c1C1CCNCC1 [3d17, 4-[2-(3-Chloro-2-fluoro-phenylsulfanyl)-6-fluoro-phenyl]-piperidine]",good affinity
5,"COc1ccc(Sc2ccc(F)cc2)c(C2CCNCC2)c1 [3c2, 4-[2-(4-Fluoro-phenylsulfanyl)-5-methoxy-phenyl]-piperidine]",good affinity
6,"COc1ccc(Sc2cccc(F)c2C2CCNCC2)c(Cl)c1 [3d25, 4-[2-(2-Chloro-4-methoxy-phenylsulfanyl)-6-fluoro-phenyl]-piperidine]",good affinity
7,"Fc1ccc(Sc2ccc(Br)cc2F)c(C2CCNCC2)c1 [2x, 4-[2-(4-Bromo-2-fluoro-phenylsulfanyl)-5-fluoro-phenyl]-piperidine]",good affinity
8,"COc1ccc(Sc2cccc(F)c2C2CCNCC2)c(C)c1 [3d4, 4-[2-(4-Methoxy-2-methyl-phenylsulfanyl)-6-fluoro-phenyl]-piperidine]",good affinity
9,"Fc1ccccc1Sc1cccc(F)c1C1CCNCC1 [3d12, 4-[2-(2-Fluoro-phenylsulfanyl)-6-fluoro-phenyl]-piperidine]",good affinity
10,"COc1ccc(Sc2cc(F)ccc2C2CCNCC2)cc1 [1e, 4-[2-(4-Methoxy-phenylsulfanyl)-4-fluoro-phenyl]-piperidine]",good affinity
11,"COc1ccc(Sc2cccc(F)c2C2CCNCC2)cc1 [3d26, 4-[2-(4-Methoxy-phenylsulfanyl)-6-fluoro-phenyl]-piperidine]",good affinity
12,"COc1ccc(Sc2cccc(F)c2C2CCNCC2)c(F)c1 [3d23, 4-[2-(2-Fluoro-4-methoxy-phenylsulfanyl)-6-fluoro-phenyl]-piperidine]",good affinity
13,"COc1cc(Sc2cccc(F)c2C2CCNCC2)ccc1F [3d13, 4-[2-(4-Fluoro-3-methoxy-phenylsulfanyl)-6-fluoro-phenyl]-piperidine]",good affinity
14,"Fc1cccc(Sc2ccc(Cl)cc2)c1C1CCNCC1 [3d19, 4-[2-(4-Chloro-phenylsulfanyl)-6-fluoro-phenyl]-piperidine]",good affinity
15,"Fc1ccc(C2CCNCC2)c(Sc2ccc(Cl)cc2)c1 [1d, 4-[2-(4-Chloro-phenylsulfanyl)-4-fluoro-phenyl]-piperidine]",good affinity
16,"Fc1ccc(Sc2ccccc2C2CCNCC2)c(Cl)c1 [3a2, 4-[2-(2-Chloro-4-fluoro-phenylsulfanyl)-phenyl]-piperidine]",good affinity
17,"COc1ccc(Sc2c(F)cccc2C2CCNCC2)cc1 [2d, 4-[2-(4-Methoxy-phenylsulfanyl)-3-fluoro-phenyl]-piperidine]",good affinity
18,"Fc1ccc(Sc2ccc(F)cc2C2CCNCC2)c(F)c1 [2t, 4-[2-(2,4-Difluoro-phenylsulfanyl)-5-fluoro-phenyl]-piperidine]",good affinity
19,"Fc1ccc(Sc2ccc(Cl)cc2F)c(C2CCNCC2)c1 [2p, 4-[2-(4-Chloro-2-fluoro-phenylsulfanyl)-5-fluoro-phenyl]-piperidine]",good affinity
20,"Cc1ccc(Sc2ccc(C)cc2C2CCNCC2)cc1 [1f, 4-[2-(4-Methyl-phenylsulfanyl)-5-methyl-phenyl]-piperidine]",good affinity

row,SMILES,affinity to the 5HT2C receptor
1,"Fc1ccc(Sc2cccc(F)c2C2CCNCC2)c(F)c1 [3d24, 4-[2-(2,4-Difluoro-phenylsulfanyl)-6-fluoro-phenyl]-piperidine]",good affinity
2,"Cc1ccc(Sc2ccc(Cl)cc2)c(C2CCNCC2)c1 [2g, 4-[2-(4-Chloro-phenylsulfanyl)-5-methyl-phenyl]-piperidine]",good affinity
3,"Fc1ccc(Sc2cccc(F)c2C2CCNCC2)cc1 [3d27, 4-[2-(4-Fluoro-phenylsulfanyl)-6-fluoro-phenyl]-piperidine]",good affinity
4,"Fc1cccc(Sc2cccc(Cl)c2)c1C1CCNCC1 [3d10, 4-[2-(3-Chloro-phenylsulfanyl)-6-fluoro-phenyl]-piperidine]",good affinity
5,"Fc1cccc(Sc2cccc(F)c2C2CCNCC2)c1 [3d11, 4-[2-(3-Fluoro-phenylsulfanyl)-6-fluoro-phenyl]-piperidine]",good affinity
6,"Fc1ccc(Sc2ccc(F)cc2C2CCNCC2)cc1 [2j, 4-[2-(4-Fluoro-phenylsulfanyl)-5-fluoro-phenyl]-piperidine]",good affinity
7,"Cc1ccc(Sc2ccc(F)cc2C)c(C2CCNCC2)c1 [1h, 4-[2-(4-Fluoro-2-methyl-phenylsulfanyl)-5-methyl-phenyl]-piperidine]",good affinity
8,"COc1ccc(Sc2ccccc2C2CCNCC2)cc1 [1b, 4-[2-(4-Methoxy-phenylsulfanyl)-phenyl]-piperidine]",good affinity
9,"COc1ccc(Sc2ccc(C)cc2C2CCNCC2)cc1 [1i, 4-[2-(4-Methoxy-phenylsulfanyl)-5-methyl-phenyl]-piperidine]",good affinity
10,"Fc1ccc(C2CCNCC2)c(Sc2ccccc2Cl)c1 [3f2, 4-[2-(2-Chloro-phenylsulfanyl)-4-fluoro-phenyl]-piperidine]",good affinity
11,"Cc1ccc(Sc2c(F)cccc2C2CCNCC2)c(C)c1 [2u, 4-[2-(2,4-Dimethyl-phenylsulfanyl)-3-fluoro-phenyl]-piperidine]",good affinity
12,"Cc1ccc(Sc2cccc(F)c2C2CCNCC2)cc1 [3d18, 4-[2-(4-Methyl-phenylsulfanyl)-6-fluoro-phenyl]-piperidine]",good affinity
13,"Fc1ccc(Sc2cc(F)ccc2C2CCNCC2)cc1 [3f3, 4-[2-(4-Fluoro-phenylsulfanyl)-4-fluoro-phenyl]-piperidine]",good affinity
14,"Fc1cccc(Sc2ccc(C(F)(F)F)cc2)c1C1CCNCC1 [3d16, 4-[2-(4-Trifluoromethyl-phenylsulfanyl)-6-fluoro-phenyl]-piperidine]",good affinity
15,Clc1ccc(Sc2ccccc2C2CCNCC2)cc1 [2a],good affinity
16,"Cc1ccc(Sc2cccc(F)c2C2CCNCC2)c(F)c1 [3d21, 4-[2-(2-Fluoro-4-methyl-phenylsulfanyl)-6-fluoro-phenyl]-piperidine]",good affinity
17,"Fc1ccc(Sc2ccccc2C2CCNCC2)c(F)c1 [3a4, 4-[2-(2,4-Difluoro-phenylsulfanyl)-phenyl]-piperidine]",good affinity
18,"Cc1ccc(Sc2cccc(F)c2C2CCNCC2)cc1F [3d7, 4-[2-(3-Fluoro-4-methyl-phenylsulfanyl)-6-fluoro-phenyl]-piperidine]",good affinity
19,"COc1ccc(Sc2ccc(F)cc2C2CCNCC2)cc1 [2b, 4-[2-(4-Methoxy-phenylsulfanyl)-5-fluoro-phenyl]-piperidine]",good affinity

# System: hippocampal 5-HT
# Conditions: rats, microdialysis, combined with citalopram; cited from earlier work
row,SMILES,increase of hippocampal 5-HT by citalopram
1,COc1ccc(NC(=O)c2ccc(-c3ccc(-c4nnc(C)o4)cc3C)cc2)cc1N1CCN(C)CC1 [GMC 2-29],potentiated
